Laboratory results: patent publication US20200197341A1, “IMMUNMODULATION FOR PREVENTION OF POOR HEALING OF MUSCULOSKELETAL INJURIES IN COMPROMISED PATIENTS” (CHARITÉ UNIVERSITÄTSMEDIZIN BERLIN, priority 2017, published 2020)
Entries after “also recorded” stand apart in the source; their conditions may differ.

How the values were obtained:
[1] = tested on: drill hole in the diaphyseal and metaphyseal bone; assay: Sheep drill hole bone healing model, μCT evaluation of bone formation; assay type: in vivo; conditions: after 3 and 9 weeks, Iloprost in collagen scaffold (burst release), applied immediately, 1 ml Ilomedin per two scaffolds
From the text: Prior publications, e.g. US 20150164853 A1, stated that immediate use of Iloprost locally to enhance bone healing is beneficial. To investigate this a high dose of Iloprost was used in a sheep bone healing model where the agent was applied in a collagen scaffold, which has a burst-release dynamic.
Bone formation has been analyzed in a drill hole model (Establishment of a preclinical ovine screening model for the investigation of bone tissue engineering strategies in cancellous and cortical bone defects. Pobloth A M, Johnson K A, Schell H, Kolarczik N, Wulsten D, Duda G N, Schmidt-Bleek K. BMC Musculoskelet Disord. 2016 Mar. 1; 17:111.). The empty control group and the collagen only group were used as negative controls while the autologous spongiosa group, the current gold standard in bone therapy, was used as a positive control. In the Ilomedin group a supraphysiological dosis of 1 ml Iloprost (Ilomedin, […] Infusionslosung, Bayer Vital GmbH, Leverkusen, Deutschland) per two scaffolds was used.

femur mouse osteotomies = assay: Mouse femur osteotomy with fibrin release system, μCT of newly formed bone; assay type: in vivo
Description: Mouse experiments were performed with 12-week-old C57BL/6 females (n=6, each sample type) (Charles River Laboratories) according to the policies and principles established by the Animal Welfare Act, the National Institutes of Health Guide for the Care and Use of Laboratory Animals, and the National Animal Welfare Guidelines. All animal experiments were approved by the local legal representative. Animals were kept under obligatory hygiene standards that were monitored according to the FELASA standards.
The osteotomy was performed on the left femur. After shaving and disinfecting the operation area of isoflurane-anesthetized animals, a lateral longitudinal incision of the skin (2 mm) from knee to hip was performed for a mid-diaphyseal approach to the femur. The femur was exposed by blunt preparation of Musculus vastus lateralis and Muscculus biceps femoris, carefully sparing the sciatic nerve. Serial drilling for pin placement (0.45 mm diameter) through the connector bar of the external fixator (MouseExFix, RlSystem, Davos, Switzerland) was performed, thus positioning the external fixator laterally in parallel to the femur. A 0.70 mm osteotomy was performed between the middle pins using a Gigli wire saw (RISystem, Davos, Switzerland). […]
The newly formed mineralized bone tissues were analyzed using high-resolution micro computed tomography (μCT). […]

CC#CCC(C)[C@H](O)/C=C/[C@@H]1[C@H]2C/C(=C/CCCC(=O)O)C[C@H]2C[C@H]1O (stereo partly drawn) [Iloprost]
bone formation in a drill hole (μCT) [1]: No differences between the collagen group and the collagen Iloprost loaded group; also recorded: no enhanced bone formation was detectable
newly formed bone volume (BV) (femur mouse osteotomies; mouse femur osteotomy, 21 days healing, fibrin release system with 3 μM Iloprost in core, median, N=6, p=0.016 vs vehicle): 1.347 mm^3
volumes of newly formed bone vs empty vehicle control (μCT) (femur mouse osteotomies; mouse, after 21 days of regeneration, Iloprost loaded release system): significantly increased volumes of newly formed bone
